Test results taken from PMC2426711 (AIDS Research and Therapy, 2008).
Like-named read-outs stand apart in the source and are kept apart here.

Key:
HIV-1 [1] = test system: HIV-1; set-up: method as in PMID 15790304; settings: cited from earlier work
vaginal mucosa = test system: vaginal mucosa; set-up: method as in PMID 11162774; settings: vaginal toxicity, New Zealand White rabbit; cited from earlier work
X4-tropic HIV-1 = test system: X4-tropic HIV-1
Protocol: (§1) To assess the transmission of HIV-1 from MDDC to autologous T-cells, MDDC were incubated into 96-well culture plates (10^5 cells/well) and infected with HIV-1 (1 ng p24) in the presence of increasing concentrations of molecules for 3 hours at 37°C in a 5% CO2 atmosphere. Cells were washed four times and autologous stimulated T cells were added onto infected MDDC at a MDDC/T-cell ratio of 1/5 for 6 days. Each sample was performed in triplicate. Culture supernatants were harvested every 3 days and fresh medium was added. Supernatants were inactivated with 1% Triton X-100. The viral production by T lymphocytes was evaluated the sixth day of the co-culture by measurement of HIV-1 p24 antigen in supernatants using capture ELISA.
(§2) Culture supernatants were harvested after 7 of culture for measurement of HIV p24 antigen.

R5-tropic HIV-1 = test system: R5-tropic HIV-1
Protocol: as §1, §2

R5-tropic HIV-1Ba-L [2] = test: Inhibition of infection of macrophages by R5-HIV-1Ba-L (p24 ELISA); type: cell-based; settings: MΦ, mean ± 1 SD
Protocol: (§3) Primary X4-HIV-1NDK was grown in peripheral blood lymphocytes (PBL) of healthy donors stimulated with PHA and rhIL-2. R5-HIV-1Ba-L was amplified in monocyte-derived macrophages of healthy donors.
(§4) Cells were washed 2 times after 6 days of differentiation and seeded into 96-well culture plates (5 × 10^5 cells/well). HIV-1 (1 ng p24 antigen/ml) and increasing concentrations of molecules were added on cells and incubated for 3 hours at 37°C in a 5% CO2 atmosphere. Each sample was performed in triplicate. After 4 washes to remove exceeding virus, cells were cultured for 3 days. […] In this last case, supernatants were harvested and viruses produced were lysed by incubation for 45 minutes at 37°C with 1% Triton X-100.

R5-tropic HIV-1Ba-L [3] = test: Inhibition of infection of T cells by R5-HIV-1Ba-L (p24 ELISA); type: cell-based; settings: mean ± 1 SD
Protocol: as §3, §4

HIV-1 [4] = test system: HIV-1
CD4, CXCR4 and CCR5 = settings: primary cells treated with C14
Protocol: Cell surface antigens were analyzed by FACSCalibur (Becton Dickinson, NJ, USA) using monoclonal antibodies (mAbs) conjugated with either fluorescein isothiocyanate (FITC) or phyco-erithryn (PE). Following incubation with different mAbs for 30 min at 4°C, cells were washed with PBS containing azide (0.01%), BSA (0.2%) and fixed using 1% formaldehyde PBS buffer.

[5] = test system: X4-tropic HIV-1 particles; settings: 20 μM
Protocol: (§5) As expected, no viral production was detected in control wells containing triton X100-treated HIV-1 and activated PBL (negative control).
(§6) HIV-1 was adsorbed on poly-L-lysin pre-coated wells (Greiner Bio-One) at 4°C overnight and further incubated with C14 for 1 h. In positive and negative control wells, 1% Triton X-100 and medium were added, respectively. […] After 6 days, viral production was assessed by p24 Ag capture ELISA.

[6] = test system: R5-tropic HIV-1Ba-L particles
Protocol: as §5, §6

R5-tropic HIV-1Ba-L [7] = test: Inhibition of infection of dendritic cells by R5-HIV-1Ba-L (p24 ELISA); type: cell-based; settings: DC, mean ± 1 SD
Protocol: as §3, §4

X4-tropic HIV-1NDK [8] = test: Inhibition of infection of dendritic cells by X4-HIV-1NDK (p24 ELISA); type: cell-based; settings: DC, mean ± 1 SD
Protocol: as §3, §4

X4-tropic HIV-1NDK [9] = test: Inhibition of infection of T cells by X4-HIV-1NDK (p24 ELISA); type: cell-based; settings: mean ± 1 SD
Protocol: as §3, §4

R5-tropic HIV-1Ba-L [10] = settings: 1 μM, 3 hours
Protocol: Monocytes or PBL (10E5 cells) were adsorbed on a microscopy-adapted slide for 6 days. MDDC, MDM or PBL were infected in the presence of C14 diluted at 10 μM for 3 hours. Cells were then washed and incubated with or without polyclonal antibodies anti-gp160 (50 μg/ml) at 4°C for 30 minutes. Cells were washed with PBS 0.01% azide 0.5% BSA, and were labelled with polyclonal mouse anti-human IgG-FITC (Jackson ImmunoResearch Laboratories, West Grove, PA, USA) and then fixed with 1% paraformaldehyde. The coverslides were mounted in Mowiol (Sigma-Aldrich). The observations were made by sequential acquisition with a Zeiss LSM510 System, mounted on an Axiovert 100 M optical microscope (Carl Zeiss AG, Oberkochen, Germany), using a planapochromat ×63, 1.4 numerical aperture oil immersion objective. Optical sections were acquired, each one with an image resolution of 512 × 512 pixels.
Cells were incubated with R5-tropic HIV-1Ba-L in the presence of 1 μM of C14 for 3 hours. […]
Monocyte-derived macrophages, monocyte-derived dendritic cells and T cells were incubated with R5 viruses in the presence of increasing concentrations of C14 for 3 hours at 37°C. […] Cells were then analysed by confocal microscopy. […] 30 cells were at least analyzed for each donor.

[11] = test system: HIV-1 DNA (R5-HIV-1Ba-L or X4-HIV-1NDK); test: HIV-1 DNA content of primary cells by real time PCR; settings: all primary cells, whatever the viral strain; increasing doses
Protocol: Genomic DNA was isolated from HIV-infected macrophages by using extraction protocol on a silica column system according to the manufacturer's instructions (Qiagen DNA minikit, AG, Basel, Switzerland). […] The LC-PCR master mix contained 1 × Fast-Start Taq DNA polymerase reaction buffer (Roche Applied Science), 3 mM MgCl2, 0.3 μM of each primer and probe. Cycling conditions were as follows: initial denaturation/FastStart Taq DNA polymerase activation at 95°C/10 minutes, 45 cycles of denaturation at 95°C/10 seconds, annealing and extension at 60°C/30 seconds with a ramp of 5°C/seconds. The first PCR cycle allowing fluorescence detection permitted to quantify HIV-1 DNA by reference to a standard curve (dilutions of 8E5 cell DNA). All reactions were performed in triplicate and tested in the same assay. […] The normalized value of cell-associated HIV-1 DNA loads corresponding to the ratio [(HIV-1 copy number/albumin copy number) × 2 × 10^6], was finally expressed as the number of HIV-1 DNA copies per 10^6 cells.
Monocyte-derived macrophages (A), monocyte-derived dendritic cells (B) and T cells (C) were incubated with R5 or X4 viruses in the presence of increasing concentrations of C14 or an unique dose of T 20 (5 μM) for 3 hours at 37°C. […] DNA was extracted and the viral DNA was quantified by real time PCR. […]

X4-tropic HIV-1NDK [12] = test: Inhibition of infection of macrophages by X4-HIV-1NDK (p24 ELISA); type: cell-based; settings: MΦ, mean ± 1 SD
Protocol: as §3, §4

Question: Which “inhibition of HIV-1 replication, active concentration” value (HIV-1 [1]) does the source give for C=C(C)[C@@H]1CC[C@]2(C(=O)NCCCCCCCC(=O)N[C@@H](CC(C)C)[C@H](O)CC(=O)O)CC[C@]3(C)[C@H](CC[C@@H]4[C@@]5(C)CC[C@H](O)C(C)(C)[C@@H]5CC[C@]43C)[C@@H]12 [IC9564] here?
Answer: The value was “nanomolar concentrations”.

Question: With C=C(C)[C@@H]1CC[C@]2(C(=O)O)CC[C@]3(C)[C@H](CC[C@@H]4[C@@]5(C)CC[C@H](OC(=O)CC(C)(C)C(=O)O)C(C)(C)[C@@H]5CC[C@]43C)[C@@H]12 [PA-457] as the molecule, how does the “inhibition of HIV-1 replication, active concentration” value (HIV-1 [1]) read?
Answer: Its value is “nanomolar concentrations”.

Question: With CCCCCCCCCc1ccc(OCCOCCOCCOCCOCCOCCOCCOCCOCCO)cc1 [nonoxynol-9] as the molecule, how does the “score of histological changes” value (vaginal mucosa) read?
Answer: The value was “about 8 ± 3”.

Question: For zinc tetra-ascorbo-camphorate [C14], which “inhibition of HIV-1 transfer from DC to T cells” value (X4-tropic HIV-1; 1 μM) is on record?
Answer: The value was “about 95%”.

Question: And the “inhibition of HIV-1 transfer from DC to autologous T cells” value (X4-tropic HIV-1; low concentrations)?
Answer: The value was “more than 90%”.

Question: What about the “inhibition of HIV-1 transfer from DC to T cells” value (R5-tropic HIV-1; 1 μM) of the same molecule?
Answer: The value was “about 95%”.

Question: And the “inhibition of HIV-1 transfer from DC to autologous T cells” value (R5-tropic HIV-1; low concentrations)?
Answer: The value was “more than 90%”.

Question: What about the IC50 (R5-tropic HIV-1Ba-L [2]) of the same molecule?
Answer: Its IC50 is 1300 ± 1000 nM.

Question: What about the IC50 (R5-tropic HIV-1Ba-L [3]) of the same molecule?
Answer: The IC50 was 800 nM.

Question: And the IC50 (HIV-1 [4]; different primary cells)?
Answer: The IC50 was 1000 nM.

Question: And the EC50 (HIV-1 [4]; infection of all the primary cells tested)?
Answer: Its EC50 is 1000 nM.

Question: What about the “cell surface expressions of CD4, CXCR4 and CCR5” value (CD4, CXCR4 and CCR5) of the same molecule?
Answer: The value was “not altered”.

Question: What about the “disruption of HIV-1 particles” value [5] of the same molecule?
Answer: The value was 58 ± 2%.

Question: And the “HIV-1 production by activated PBL, virus treated versus untreated with C14” value [6]?
Answer: The value was “similar”.

Question: What about the IC50 (R5-tropic HIV-1Ba-L [7]) of the same molecule?
Answer: The IC50 was 1300 ± 100 nM.

Question: What about the IC50 (X4-tropic HIV-1NDK [8]) of the same molecule?
Answer: Its IC50 is 1800 ± 100 nM.

Question: What about the IC50 (X4-tropic HIV-1NDK [9]) of the same molecule?
Answer: Its IC50 is 700 ± 100 nM.

Question: And the “inhibition of entry of viruses” value (R5-tropic HIV-1Ba-L [10]; T cells)?
Answer: Its value is “inhibited the entry of viruses only into T cells”.

Question: What about the “inhibition of entry of viruses” value (R5-tropic HIV-1Ba-L [10]; macrophages and DCs) of the same molecule?
Answer: Its value is “unlike in macrophages and DCs”.

Question: What about the “reduction of the HIV-1 DNA content” value [11] of the same molecule?
Answer: Its value is 2–3 log.

Question: And the IC50 (X4-tropic HIV-1NDK [12])?
Answer: Its IC50 is 20 nM.
